The text below walks through data of patent US12172957B2, “Attractant composition for the species Delottococcus aberiae, methods for the monitoring, detection and/or control of the pest” (Ecologia y Proteccion Agricola, S.L., priority 2018, dated 2024).

The test system of series [1] is male Delottococcus aberiae. Nature of the series: Choice test in glass Petri dish: response of males to the compound vs. pentane control, laboratory conditions. In kind it is in vivo. To be noted: 10 μl on 1 cm^2 filter paper vs. pentane negative control; 10 min; χ2 test P<0.05; FIG. 2. The protocol:
The response of male Delottococcus aberiae to (4,5,5-trimethyl-3-methylenecyclopent-1-en-1-yl)methyl acetate was evaluated in the Centro de Ecologia Quimica Agricola (UPV, Valencia) by means of a test on the activity in a glass Petri dish. The tests were performed with light and under the same breeding conditions, at 23±2° C. and 60-70% relative humidity.
For these tests, males from breeding were also used, separated on Petri dishes right when the cottony cocoon begins to form. After pupating and finally emerging from the cocoon, the insects are observed under a binocular scope to confirm their state before being selected for the test.
The method used is described below: for each test, there were placed at opposite ends of the Petri dish a sample of (4,5,5-trimethyl-3-methylenecyclopent-1-en-1-yl)methyl acetate and a negative control (solvent pentane without activity), arranged on 1 cm^2 filter paper in an amount of 10 μl. Immediately, groups of males are carefully deposited on the test plate with the aid of a very fine brush. Therefore, the behaviour of the individuals with respect to the sources of stimulation is recorded for 10 min. Once the test has ended, the insects are discarded, such that each insect is exposed to olfactory stimuli only once. The obtained data were analysed by means of a Chi-squared test (χ2 test, P<0.05).

Series [2] can be described thus: Analysis of the attractant content of the septum carriers after 20 days in the field (emission). In kind it is physicochemical. How it is done: Therefore, the mean emission for those 20 days is 9.45±2.13 μg/day. […] Therefore, the mean emission for those 20 days is 0.55±0.42 μg/day.
The test system of series [3] is male Delottococcus aberiae. As to the kind of experiment: Field tests on the attraction response: baited adhesive traps in a citrus plot. It counts as in vivo. How it is done: The response in male Delottococcus aberiae to (4,5,5-trimethyl-3-methylenecyclopent-1-en-1-yl)methyl acetate was evaluated in two field tests performed in a citrus var. Marisol plot, located in Sagunto (Valencia), during the months of May-June 2018. In a first test, 3 blocks of 2 devices were installed, said devices being: (A) a device with carrier, without attractant substance and with a trap consisting of a white sheet with adhesive, (B) a device with carrier with bait containing 500 μg of (4,5,5-trimethyl-3-methylenecyclopent-1-en-1-yl)methyl acetate and a trap consisting of a white sheet with adhesive (95×150 mm) (in each block, the devices were located at a distance of 20 m from one another, whereas the distance between blocks was at least 30 m. The carriers loaded with (4,5,5-trimethyl-3-methylenecyclopent-1-en-1-yl)methyl acetate were septum-type carriers and were inserted in the centre of the trap.
The captures obtained in each of the traps were checked each week and the captured individuals were taken to the laboratory to be identified and counted. Traps in the same block were rotated each week.
The number of males captured per trap and day was compared by means of an analysis of variance (ANOVA; LSD test for comparison of the means, P<0.05), subject to transformation (In(x+1)) of the data to homogenise the variance.
In a second test, this was performed in the same way as test 1, but device B included bait containing 100 μg of (4,5,5-trimethyl-3-methylenecyclopent-1-en-1-yl)methyl acetate.

Where [4] appears, read: first field test, tested load 300 μg per septa.

Several values for one entry are separate records, joined by “and”; a condition that tells them apart may be missing. Identical values can stand only once.

Turning to `C=C1C=C(COC(C)=O)C(C)(C)C1C` (racemic) [Pheromone, (4,5,5-trimethyl-3-methylenecyclopent-1-en-1-yl)methyl acetate], the “Response of male Delottococcus aberiae in the test of choice” value in series [1] was “significant attractant response”. The “Final content of the substance after 20 days” value in series [2] (setting [4]) was determined as 109 µg; in series [2] (second field test, bait 100 μg), 91 µg. Further, the “Mean emission for those 20 days” value in series [2] (setting [4]) was found to be 9.45 ± 2.13 µg/day; in series [2] (second field test, bait 100 μg), 0.55 ± 0.42 µg/day. Further, the “Male captures per trap and day” value in series [3] (first field test, Table 1, bait 500 μg (300 μg per septa), single traps) is 61.0 and 52.7 and 58.0. Besides, the “Average field captures per trap and day” value in series [3] (first field test, bait 500 μg (300 μg elsewhere in the source), controls 0.11, P<0.001) is 57.22; in series [3] (second field test, bait 100 μg, controls 0.06, P<0.036), 9.14. Further, in series [3] (first field test, septum bait, white adhesive trap, ANOVA, LSD P<0.05, FIG. 3), the “Attraction power of baited devices vs. traps without attractant” value was “significantly higher attraction power”.
